In PubChem BioAssay AID1963968 (Molecular Pharmacology Branch, DTP, NCI, 2024):
pIC50: −log10 of the molar value.

Test system: 945468-187-T-J3-PDC spheroids with HUVEC/MSC, viability
Experiment: Anticancer human tumor 945468-187-T-J3-PDC patient-derived rectal carcinoma cell line growth inhibition [PI3K]
Conditions: for pIC50: curve of first compound; for viability, T/C: stronger effect = lower value
How it was run: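 Stroma-containing spheroids: tumor line, pooled-donor HUVEC, hMSC. Treatments: targeted agents with PI3K inhibitors. Dosing: clinically relevant, half-log spacing, 10 microM ceiling without known Cmax. Read-out: cell viability.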

[1] = second compound 0.0316 µM, first compound 0.0316 µM
[2] = second compound 0.0316 µM, first compound 0.1 µM
[3] = second compound 0.1 µM, first compound 0.0316 µM
[4] = second compound 0.1 µM, first compound 0.1 µM
[5] = second compound 0.316 µM, first compound 0.0316 µM
[6] = second compound 0.316 µM, first compound 0.1 µM
[7] = second compound 1 µM, first compound 0.0316 µM
[8] = second compound 1 µM, first compound 0.1 µM
[9] = second compound 3.16 µM, first compound 0.0316 µM
[10] = second compound 3.16 µM, first compound 0.1 µM
[11] = second compound 10 µM, first compound 0.0316 µM
[12] = second compound 10 µM, first compound 0.1 µM
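Further: spheroids exposed to agents for 7 days before viability read.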
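Wherever viability, T/C is given: 100% = DMSO vehicle control viability.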

`CC(C)n1nc(-c2ccc3oc(N)nc3c2)c2c(N)ncnc21` + CC(Nc1ncnc2nc[nH]c12)c1cc2cccc(Cl)c2c(=O)n1-c1ccccc1 was tested. Which pIC50 (second compound 0.0316 µM) did it give?
The pIC50 was under 7.00.

What about the pIC50 (second compound 0.1 µM) of the same molecule?
Its pIC50 is under 7.00.

What about the pIC50 (second compound 0.316 µM) of the same molecule?
The pIC50 was under 7.00.

What about the pIC50 (second compound 1 µM) of the same molecule?
The pIC50 was under 7.00.

And the pIC50 (second compound 3.16 µM)?
The pIC50 was 7.06.

What about the pIC50 (second compound 10 µM) of the same molecule?
The pIC50 was 7.15.

What about the viability, T/C (second compound 0.0316 µM, first compound 0.000316 µM) of the same molecule?
The viability, T/C was 105%.

And the viability, T/C (second compound 0.0316 µM, first compound 0.001 µM)?
Its viability, T/C is 101%.

And the viability, T/C (second compound 0.0316 µM, first compound 0.00316 µM)?
Its viability, T/C is 95%.

What about the viability, T/C (second compound 0.0316 µM, first compound 0.01 µM) of the same molecule?
The viability, T/C was 99.1%.

What about the viability, T/C [1] of the same molecule?
The viability, T/C was 93.2%.

And the viability, T/C [2]?
Its viability, T/C is 62.2%.

What about the viability, T/C (second compound 0.1 µM, first compound 0.000316 µM) of the same molecule?
Its viability, T/C is 122%.

What about the viability, T/C (second compound 0.1 µM, first compound 0.001 µM) of the same molecule?
The viability, T/C was 103%.

What about the viability, T/C (second compound 0.1 µM, first compound 0.00316 µM) of the same molecule?
The viability, T/C was 101%.

And the viability, T/C (second compound 0.1 µM, first compound 0.01 µM)?
The viability, T/C was 91.9%.

What about the viability, T/C [3] of the same molecule?
The viability, T/C was 105%.

What about the viability, T/C [4] of the same molecule?
Its viability, T/C is 50.5%.

And the viability, T/C (second compound 0.316 µM, first compound 0.000316 µM)?
Its viability, T/C is 99%.

What about the viability, T/C (second compound 0.316 µM, first compound 0.001 µM) of the same molecule?
Its viability, T/C is 89.1%.

And the viability, T/C (second compound 0.316 µM, first compound 0.00316 µM)?
Its viability, T/C is 102%.

And the viability, T/C (second compound 0.316 µM, first compound 0.01 µM)?
Its viability, T/C is 97.1%.

What about the viability, T/C [5] of the same molecule?
The viability, T/C was 104%.

And the viability, T/C [6]?
The viability, T/C was 59.5%.

What about the viability, T/C (second compound 1 µM, first compound 0.000316 µM) of the same molecule?
Its viability, T/C is 99.7%.

What about the viability, T/C (second compound 1 µM, first compound 0.001 µM) of the same molecule?
The viability, T/C was 98.4%.

And the viability, T/C (second compound 1 µM, first compound 0.00316 µM)?
The viability, T/C was 98.3%.

What about the viability, T/C (second compound 1 µM, first compound 0.01 µM) of the same molecule?
The viability, T/C was 112%.

What about the viability, T/C [7] of the same molecule?
Its viability, T/C is 96%.

What about the viability, T/C [8] of the same molecule?
Its viability, T/C is 51.1%.

And the viability, T/C (second compound 3.16 µM, first compound 0.000316 µM)?
Its viability, T/C is 104%.

What about the viability, T/C (second compound 3.16 µM, first compound 0.001 µM) of the same molecule?
Its viability, T/C is 89.8%.

What about the viability, T/C (second compound 3.16 µM, first compound 0.00316 µM) of the same molecule?
Its viability, T/C is 99.1%.

What about the viability, T/C (second compound 3.16 µM, first compound 0.01 µM) of the same molecule?
Its viability, T/C is 101%.

What about the viability, T/C [9] of the same molecule?
The viability, T/C was 103%.

What about the viability, T/C [10] of the same molecule?
The viability, T/C was 43.6%.

What about the viability, T/C (second compound 10 µM, first compound 0.000316 µM) of the same molecule?
The viability, T/C was 103%.

And the viability, T/C (second compound 10 µM, first compound 0.001 µM)?
Its viability, T/C is 96.9%.

What about the viability, T/C (second compound 10 µM, first compound 0.00316 µM) of the same molecule?
The viability, T/C was 93.5%.

What about the viability, T/C (second compound 10 µM, first compound 0.01 µM) of the same molecule?
Its viability, T/C is 87%.

What about the viability, T/C [11] of the same molecule?
Its viability, T/C is 89.3%.

What about the viability, T/C [12] of the same molecule?
Its viability, T/C is 33.7%.

What does the source list for `CC1(C)CCC(CN2CCN(c3ccc(C(=O)NS(=O)(=O)c4ccc(NCC5CCOCC5)c([N+](=O)[O-])c4)c(Oc4cnc5[nH]ccc5c4)c3)CC2)=C(c2ccc(Cl)cc2)C1` + CC(Nc1ncnc2nc[nH]c12)c1cc2cccc(Cl)c2c(=O)n1-c1ccccc1?
pIC50 (second compound 0.0316 µM): < 5.00; pIC50 (second compound 0.1 µM): < 5.00; pIC50 (second compound 0.316 µM): < 5.00; pIC50 (second compound 1 µM): < 5.00; pIC50 (second compound 3.16 µM): < 5.00; pIC50 (second compound 10 µM): < 5.00; viability, T/C [1]: 99.2%; viability, T/C [2]: 91.9%; viability, T/C (second compound 0.0316 µM, first compound 0.316 µM): 95.7%; viability, T/C (second compound 0.0316 µM, first compound 1 µM): 96%; viability, T/C (second compound 0.0316 µM, first compound 3.16 µM): 117%; viability, T/C (second compound 0.0316 µM, first compound 10 µM): 114%; viability, T/C [3]: 94.4%; viability, T/C [4]: 95.8%; viability, T/C (second compound 0.1 µM, first compound 0.316 µM): 98.7%; viability, T/C (second compound 0.1 µM, first compound 1 µM): 102%; viability, T/C (second compound 0.1 µM, first compound 3.16 µM): 105%; viability, T/C (second compound 0.1 µM, first compound 10 µM): 106%; viability, T/C [5]: 111%; viability, T/C [6]: 106%; viability, T/C (second compound 0.316 µM, first compound 0.316 µM): 104%; viability, T/C (second compound 0.316 µM, first compound 1 µM): 118%; viability, T/C (second compound 0.316 µM, first compound 3.16 µM): 113%; viability, T/C (second compound 0.316 µM, first compound 10 µM): 104%; viability, T/C [7]: 100%; viability, T/C [8]: 94%; viability, T/C (second compound 1 µM, first compound 0.316 µM): 92.6%; viability, T/C (second compound 1 µM, first compound 1 µM): 98.6%; viability, T/C (second compound 1 µM, first compound 3.16 µM): 110%; viability, T/C (second compound 1 µM, first compound 10 µM): 110%; viability, T/C [9]: 100%; viability, T/C [10]: 107%; viability, T/C (second compound 3.16 µM, first compound 0.316 µM): 95.4%; viability, T/C (second compound 3.16 µM, first compound 1 µM): 109%; viability, T/C (second compound 3.16 µM, first compound 3.16 µM): 115%; viability, T/C (second compound 3.16 µM, first compound 10 µM): 98.2%; viability, T/C [11]: 105%; viability, T/C [12]: 95.6%; viability, T/C (second compound 10 µM, first compound 0.316 µM): 97.3%; viability, T/C (second compound 10 µM, first compound 1 µM): 103%; viability, T/C (second compound 10 µM, first compound 3.16 µM): 120%; viability, T/C (second compound 10 µM, first compound 10 µM): 93.9%
